Measured values taken from the NIST ThermoML archive (doi:10.1021/je700300y).
± gives the expanded uncertainty stated by the source.

Test: xn = mol fraction of the nth substance listed
Conditions: 101 kPa, Liquid

CCO [ethanol] + O
mass density [kg/m3]
Conditions | 283.15 K | 288.15 K | 293.15 K | 298.15 K | 303.15 K | 308.15 K | 313.15 K
x2 = 0.0805 | 808.05 ± 0.22 | 803.79 ± 0.22 | 799.51 ± 0.22 | 795.19 ± 0.23 | 790.85 ± 0.23 | 786.45 ± 0.23 | 782.01 ± 0.24
x2 = 0.1584 | 818.14 ± 0.21 | 813.87 ± 0.21 | 809.57 ± 0.22 | 805.23 ± 0.22 | 800.84 ± 0.22 | 796.41 ± 0.23 | 791.93 ± 0.23
x2 = 0.2376 | 828.89 ± 0.2 | 824.61 ± 0.21 | 820.29 ± 0.21 | 815.93 ± 0.21 | 811.53 ± 0.22 | 807.07 ± 0.22 | 802.5 ± 0.22
x2 = 0.3322 | 842.93 ± 0.19 | 838.67 ± 0.19 | 834.37 ± 0.2 | 830.01 ± 0.2 | 825.61 ± 0.2 | 821.15 ± 0.21 | 816.63 ± 0.21
x2 = 0.4026 | 854.12 ± 0.18 | 849.89 ± 0.19 | 845.61 ± 0.19 | 841.27 ± 0.19 | 836.89 ± 0.2 | 832.45 ± 0.2 | 827.94 ± 0.2
x2 = 0.491 | 869.86 ± 0.17 | 865.67 ± 0.17 | 861.44 ± 0.18 | 857.16 ± 0.18 | 852.81 ± 0.18 | 848.4 ± 0.19 | 843.95 ± 0.19
x2 = 0.5806 | 888.19 ± 0.16 | 884.08 ± 0.16 | 879.93 ± 0.16 | 875.71 ± 0.17 | 871.44 ± 0.17 | 867.11 ± 0.17 | 862.72 ± 0.18
x2 = 0.648 | 903.57 ± 0.15 | 899.55 ± 0.15 | 895.48 ± 0.15 | 891.35 ± 0.15 | 887.16 ± 0.16 | 882.91 ± 0.16 | 878.59 ± 0.16
x2 = 0.7185 | 921.65 ± 0.13 | 917.78 ± 0.13 | 913.84 ± 0.14 | 909.85 ± 0.14 | 905.8 ± 0.14 | 901.68 ± 0.15 | 897.49 ± 0.15
x2 = 0.8009 | 944.6 ± 0.11 | 941.07 ± 0.12 | 937.48 ± 0.12 | 933.81 ± 0.12 | 930.07 ± 0.12 | 926.25 ± 0.13 | 922.34 ± 0.13
x2 = 0.8813 | 965.96 ± 0.1 | 963.49 ± 0.1 | 960.85 ± 0.1 | 958.06 ± 0.1 | 955.13 ± 0.11 | 952.05 ± 0.11 | 948.82 ± 0.11
x2 = 0.9605 | 984.04 ± 0.08 | 983.11 ± 0.08 | 981.89 ± 0.08 | 980.42 ± 0.09 | 978.75 ± 0.09 | 976.91 ± 0.09 | 974.89 ± 0.09

CO [methanol] + O
mass density [kg/m3]
Conditions | 283.15 K | 288.15 K | 293.15 K | 298.15 K | 303.15 K | 308.15 K | 313.15 K
x2 = 0.0871 | 814.96 ± 0.21 | 810.44 ± 0.22 | 805.91 ± 0.22 | 801.35 ± 0.22 | 796.78 ± 0.23 | 792.17 ± 0.23 | 787.52 ± 0.23
x2 = 0.1529 | 826.26 ± 0.2 | 821.86 ± 0.21 | 817.44 ± 0.21 | 812.99 ± 0.21 | 808.5 ± 0.22 | 803.98 ± 0.22 | 799.41 ± 0.22
x2 = 0.2395 | 841.8 ± 0.19 | 837.53 ± 0.2 | 833.23 ± 0.2 | 828.9 ± 0.2 | 824.53 ± 0.21 | 820.11 ± 0.21 | 815.64 ± 0.21
x2 = 0.3306 | 859.01 ± 0.18 | 854.89 ± 0.18 | 850.73 ± 0.19 | 846.53 ± 0.19 | 842.28 ± 0.19 | 837.98 ± 0.2 | 833.61 ± 0.2
x2 = 0.4064 | 873.83 ± 0.17 | 869.85 ± 0.17 | 865.81 ± 0.17 | 861.73 ± 0.18 | 857.59 ± 0.18 | 853.4 ± 0.18 | 849.13 ± 0.19
x2 = 0.4788 | 888.32 ± 0.16 | 884.5 ± 0.16 | 880.62 ± 0.16 | 876.68 ± 0.17 | 872.67 ± 0.17 | 868.59 ± 0.17 | 864.45 ± 0.17
x2 = 0.5552 | 904.06 ± 0.14 | 900.44 ± 0.15 | 896.75 ± 0.15 | 893 ± 0.15 | 889.17 ± 0.16 | 885.26 ± 0.16 | 881.28 ± 0.16
x2 = 0.6365 | 921.03 ± 0.13 | 917.69 ± 0.13 | 914.28 ± 0.14 | 910.78 ± 0.14 | 907.2 ± 0.14 | 903.52 ± 0.14 | 899.76 ± 0.15
x2 = 0.7321 | 941.06 ± 0.12 | 938.2 ± 0.12 | 935.24 ± 0.12 | 932.18 ± 0.12 | 929.02 ± 0.13 | 925.74 ± 0.13 | 922.36 ± 0.13
x2 = 0.7901 | 952.73 ± 0.11 | 950.29 ± 0.11 | 947.7 ± 0.11 | 945 ± 0.11 | 942.19 ± 0.12 | 939.27 ± 0.12 | 936.09 ± 0.12
x2 = 0.8807 | 970.64 ± 0.09 | 969.11 ± 0.09 | 967.39 ± 0.1 | 965.47 ± 0.1 | 963.37 ± 0.1 | 961.09 ± 0.1 | 958.65 ± 0.1
x2 = 0.964 | 988.96 ± 0.08 | 988.25 ± 0.08 | 987.25 ± 0.08 | 986 ± 0.08 | 984.5 ± 0.08 | 982.79 ± 0.08 | 980.87 ± 0.09
